Data: US5563134A (Sandoz Ltd., priority 1993, dated 1996)
Where two headings read alike, the source gives them in different places.

Experiments:
[1] = test system: glutathione and protein from human myeloperoxidase and human leucocytes
[2] = test system: glutathione and protein from human myeloperoxidase and human leucocytes; assay: Reactive species formation and covalent binding of clozapine metabolites, tests as for clozapine
horseradish peroxidase [3] = target: T1, horseradish peroxidase (Armoracia rusticana, UniProt P00433); assay: Electron spin resonance spectroscopy of radicals in a peroxidase system; conditions: for Effect on ascorbyl radical concentration (ESR): 1 mM added to ascorbate/clozapine/horseradish peroxidase/hydrogen peroxide system
T1 sequence (P00433 31-338 limits assumed): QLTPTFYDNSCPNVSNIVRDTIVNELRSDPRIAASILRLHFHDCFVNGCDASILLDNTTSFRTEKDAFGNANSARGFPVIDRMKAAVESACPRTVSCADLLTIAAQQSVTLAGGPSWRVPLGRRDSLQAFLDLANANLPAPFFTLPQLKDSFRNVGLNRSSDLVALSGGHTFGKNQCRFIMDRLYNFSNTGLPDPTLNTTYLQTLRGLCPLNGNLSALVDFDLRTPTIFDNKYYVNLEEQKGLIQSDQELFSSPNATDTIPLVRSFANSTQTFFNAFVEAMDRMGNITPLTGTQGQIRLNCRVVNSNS

horseradish peroxidase [4] = target: T1, horseradish peroxidase; assay: Clozapine metabolism by peroxidase, disappearance of UV absorption at 290 nm; type: biochemical
[5] = test system: human myeloperoxidase or horseradish peroxidase; assay: HPLC with on-line radioactivity detection of tritium-labeled clozapine incubated with peroxidase and hydrogen peroxide; type: biochemical
Experimental: For HPLC a reversed phase column (Supelco Inc., Bellefonte Pa. USA LC-18-DB, 5 μm, 250×4.6 mm) was used. The mobile phase consisted of (NH4)2 CO3 buffer pH 8.5 (solvent A) and acetonitrile (solvent B). The proportion of solvent B was 0% for 5 minutes and was increased to reach 20% at 10 minutes, 24% at 60 minutes and 80% at 100 minutes. […] Instead two radioactive peaks eluting at 28 and 53 minutes from the HPLC appeared.

[6] = target: horseradish peroxidase (or human myeloperoxidase) (Homo sapiens, UniProt P05164); type: biochemical; conditions: clozapine 100 μM, human myeloperoxidase 10 units, NADPH 10 mM, in place of horseradish peroxidase and GSH
Experimental: (§1) Oxygen consumption has also been observed when horseradish peroxidase was replaced with human myeloperoxidase (10 units) and GSH with NADPH (10 mM).

[7] = test system: horseradish peroxidase (or human myeloperoxidase); type: biochemical
Experimental: as §1

[8] = test system: patients refractory and/or intolerant to classical antipsychotic drug treatment; conditions: cited from earlier work
[9] = test system: granulocytes/polymorphonuclear leucocytes (PMN's); assay: Covalent binding of radiolabeled clozapine to isolated PMN's; type: cell-based, human
Experimental: 4) In another test heparinized peripheral blood was obtained from normal, healthy male volunteers, and granulocytes/polymorphonuclear leucocytes (PMN's) were isolated within 1-2 hours using an isolation kit (United Technologies Packard, Los Alamos, USA). PMN's were suspended in RPMI 1640 (Gibco, Basel, Switzerland) medium and adjusted to about 4×10^6 cells/ml before fetal calf serum was added (10% v/v).

Chain of horseradish peroxidase (or human myeloperoxidase) (Homo sapiens, UniProt P05164) (P05164 165-278 limits assumed): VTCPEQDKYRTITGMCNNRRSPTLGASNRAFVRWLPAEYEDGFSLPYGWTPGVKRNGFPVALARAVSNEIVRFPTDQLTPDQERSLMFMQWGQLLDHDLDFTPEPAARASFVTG
Chain of horseradish peroxidase (or human myeloperoxidase) (Homo sapiens, UniProt P05164) (P05164 279-745 limits assumed): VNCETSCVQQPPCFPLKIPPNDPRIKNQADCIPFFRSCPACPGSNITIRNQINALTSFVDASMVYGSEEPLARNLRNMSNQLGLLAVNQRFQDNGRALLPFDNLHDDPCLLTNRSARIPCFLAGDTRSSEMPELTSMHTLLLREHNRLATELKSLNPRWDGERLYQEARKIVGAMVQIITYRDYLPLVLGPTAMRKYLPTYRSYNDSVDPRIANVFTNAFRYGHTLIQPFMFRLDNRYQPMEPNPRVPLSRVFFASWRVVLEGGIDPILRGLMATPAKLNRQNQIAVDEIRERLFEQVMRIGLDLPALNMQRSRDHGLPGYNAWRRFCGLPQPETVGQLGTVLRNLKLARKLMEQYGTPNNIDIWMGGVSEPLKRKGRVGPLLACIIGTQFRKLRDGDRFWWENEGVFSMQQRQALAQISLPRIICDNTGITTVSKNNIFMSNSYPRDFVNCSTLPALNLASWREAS

SMILES: CN1CCN(C2=Nc3cc(Cl)c(O)cc3Nc3ccccc32)CC1 [7-hydroxy-8-chloro-11-(4-methyl-1-piperazinyl)-5H-dibenzo[b,e][1,4]diazepine]
- Formation of reactive species [1]: form reactive species such as free radicals

SMILES: Clc1ccc2c(c1)N=C(N1CCNCC1)c1ccccc1N2 [8-chloro-11-(1-piperazinyl)-5H-dibenzo[b,e][1,4]diazepine]
- Formation of reactive species [1]: form reactive species such as free radicals

SMILES: C[N+]1([O-])CCN(C2=Nc3cc(Cl)ccc3Nc3ccccc32)CC1 [8-chloro-11-(4-methyl-4-oxo-1-piperazinyl)-5H-dibenzo[b,e][1,4]diazepine]
- Formation of reactive species [1]: form reactive species such as free radicals

SMILES: Oc1ccc2c(c1)N=C(N1CCNCC1)c1ccccc1N2 [8-hydroxy-11-(1-piperazinyl)-5H-dibenzo[b,e][1,4]diazepine]
- Formation of reactive species [1]: form reactive species such as free radicals

SMILES: CN1CCN(C2=Nc3cc(O)ccc3Nc3ccccc32)CC1 [8-hydroxy-11-(4-methyl-1-piperazinyl)-5H-dibenzo[b,e][1,4]diazepine]
- Formation of reactive species ([2]; tests as for clozapine, worded "can also be shown"): form reactive species such as free radicals

SMILES: CSc1ccc2c(c1)N=C(N1CCNCC1)c1ccccc1N2 [8-methylthio-11-(1-piperazinyl)-5H-dibenzo-[b,e][1,4]diazepine]
- Formation of reactive species [1]: form reactive species such as free radicals

SMILES: CSc1ccc2c(c1)N=C(N1CCN(C)CC1)c1ccccc1N2 [8-methylthio-11-(4-methyl-1-piperazinyl)-5H-dibenzo[b,e][1,4]diazepine]
- Formation of reactive species [1]: form reactive species such as free radicals

SMILES: NC(=O)C1=CN([C@@H]2O[C@H](COP(=O)(O)OP(=O)(O)OC[C@H]3O[C@@H](n4cnc5c(N)ncnc54)[C@H](OP(=O)(O)O)[C@@H]3O)[C@@H](O)[C@H]2O)C=CC1 [NADPH]
- Effect on ascorbyl radical concentration (ESR) (horseradish peroxidase [3]): almost absent

SMILES: O=C1O[C@H]([C@@H](O)CO)C(O)=C1O [ascorbic acid, L-ascorbic acid]
- Effect on covalent binding of clozapine and its metabolites ([2]; intact human cells, radical scavenger): prevented

SMILES: CN1CCN(C2=Nc3cc(Cl)ccc3Nc3ccccc32)CC1 [clozapine, 8-chloro-11-(4-methyl-1-piperazinyl)-5H-dibenzo[b,e][1,4]diazepine]
- Clozapine metabolism by peroxidases (disappearance of UV absorption at 290 nm) (horseradish peroxidase [4]; clozapine 100 μM, 1-5 μg/ml horseradish peroxidase, 50 μM hydrogen peroxide, pH 7.4): demonstrated
- Covalent binding of clozapine-derived material to the enzyme (coelution of radioactivity with enzymatic protein) ([5]; clozapine 100 μM, enzyme and hydrogen peroxide present): Covalent binding of clozapine-derived material to the enzyme was indicated
- Oxygen consumption [6]: observed
- Oxygen consumption as indicator of radical formation ([7]; clozapine 100 μM, horseradish peroxidase 5 μg/ml, GSH 10 mM, pH 7.4): indicates an initial clozapine radical formation
- Antipsychotic efficacy compared with standard neuroleptics ([8]; clinical studies): superior
- Patients refractory to standard neuroleptics who significantly improved ([8]; clozapine treatment): approximately 30%
- Risk of granulocytopenia and agranulocytosis ([8]; clozapine treatment): apparent increased risk
- Increase in steady-state concentration of the ascorbyl radical when clozapine is present (horseradish peroxidase [3]; 100 μM sodium ascorbate, 100 μM clozapine, horseradish peroxidase 8.3 μg/ml, hydrogen peroxide 50 μM, pH 7.4): over two fold
- Glutathionyl thiyl radicals by ESR (DMPO trapping) (horseradish peroxidase [3]; absence of sodium ascorbate, DMPO 100 mM): detected

SMILES: N[C@@H](CCC(=O)N[C@@H](CS)C(=O)NCC(=O)O)C(=O)O [glutathione]
- Effect on covalent binding to the enzymatic protein and metabolite formation ([5]; GSH 10 mM, pH 7.4, added to standard incubation): reduced but to a lesser extent
- Effect on ascorbyl radical concentration (ESR) (horseradish peroxidase [3]): only marginally affected

SMILES: O=C1O[C@H]([C@@H](O)CO)C([O-])=C1O.[Na+] [sodium ascorbate]
- Effect on metabolism of clozapine (UV signal changes) (horseradish peroxidase [4]; sodium ascorbate 0.7 mM added to the incubation): reversed
- Effect on clozapine metabolism (metabolite formation) ([5]; sodium ascorbate 0.7 mM): completely reversed
- Effect on covalent binding of clozapine to enzymatic protein ([5]; sodium ascorbate 0.7 mM): no radioactivity coeluted with the enzymatic protein
- Effect on oxygen consumption i.e. initial clozapine radical formation ([7]; sodium ascorbate 0.7 mM): prevented
- Effect on clozapine binding to PMN's ([9]; 5 mM sodium ascorbate, incubations containing opsonized zymosan): reduction of clozapine binding to PMN's
- Effect on covalent binding of clozapine to PMN's ([9]; radiolabeled clozapine and sodium ascorbate incubated together with PMN's, worded "may also be shown"): reduction of covalent binding
